Experimental data: patent US10695337B2, “Piperidin-4-yl azetidine derivatives as JAK1 inhibitors” (Incyte Corporation, priority 2010, dated 2020)

Target: human JAK1 (a.a. 837-1142)
Test: In vitro JAK kinase assay (HTRF, phosphorylation of a biotinylated peptide), JAK1
Format: biochemical
Details: measured at 1 mM ATP; JAK2 IC50 / JAK1 IC50
Method in brief: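 Phosphorylation of a biotinylated peptide by purified His-tagged JAK catalytic domains (insect-cell baculovirus expression) ran 1 hr at room temperature. After stopping with EDTA, Eu-Py20 and SA-APC were bound for 40 minutes and HTRF measured.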

Compared with N#CCC1(n2cc(-c3ncnc4[nH]ccc34)cn2)CN(C2CCN(Cc3ccc(F)c(C#N)c3)CC2)C1 [Example 220, 5-[(4-{3-(cyanomethyl)-3-[4-(7H-pyrrolo[2,3-d]pyrimidin-4-yl)-1H-pyrazol-1-yl]azetidin-1-yl}piperidin-1-yl)methyl]-2-fluorobenzonitrile], N#CCC1(n2cc(-c3ncnc4[nH]ccc34)cn2)CN(C2CCN(Cc3ccc(C#N)c(F)c3)CC2)C1 [Example 229, 4-[(4-{3-(cyanomethyl)-3-[4-(7H-pyrrolo[2,3-d]pyrimidin-4-yl)-1H-pyrazol-1-yl]azetidin-1-yl}piperidin-1-yl)methyl]-2-fluorobenzonitrile] is higher in “IC50 Ratio JAK2/JAK1” value: 4.4 for the first, 6.4 for the second.

Compared with N#CCC1(n2cc(-c3ncnc4[nH]ccc34)cn2)CN(C2CCN(Cc3ccc(-c4conn4)cc3)CC2)C1 [Example 221, {1-{1-[4-(1,2,3-oxadiazol-4-yl)benzyl]piperidin-4-yl}-3-[4-(7H-pyrrolo[2,3-d]pyrimidin-4-yl)-1H-pyrazol-1-yl]azetidin-3-yl}acetonitrile], N#CCC1(n2cc(-c3ncnc4[nH]ccc34)cn2)CN(C2CCN(Cc3ccnc(Br)c3)CC2)C1 [Example 226, {1-{1-[(2-bromopyridin-4-yl)methyl]piperidin-4-yl}-3-[4-(7H-pyrrolo[2,3-d]pyrimidin-4-yl)-1H-pyrazol-1-yl]azetidin-3-yl}acetonitrile] is higher in “IC50 Ratio JAK2/JAK1” value: 1.3 for the first, 1.9 for the second.

Going from N#CCC1(n2cc(-c3ncnc4[nH]ccc34)cn2)CN(C2CCN(Cc3cccc(C#N)c3)CC2)C1 [Example 223, 3-[(4-{3-(cyanomethyl)-3-[4-(7H-pyrrolo[2,3-d]pyrimidin-4-yl)-1H-pyrazol-1-yl]azetidin-1-yl}piperidin-1-yl)methyl]benzonitrile] to N#CCC1(n2cc(-c3ncnc4[nH]ccc34)cn2)CN(C2CCN(S(=O)(=O)c3cccc(C#N)c3)CC2)C1 [Example 248, 3-[(4-{3-(cyanomethyl)-3-[4-(7H-pyrrolo[2,3-d]pyrimidin-4-yl)-1H-pyrazol-1-yl]azetidin-1-yl}piperidin-1-yl)sulfonyl]benzonitrile], the “IC50 Ratio JAK2/JAK1” value falls from 5.9 to 5.2.

First: COc1nc(CN2CCC(N3CC(CC#N)(n4cc(-c5ncnc6[nH]ccc56)cn4)C3)CC2)ccc1C#N [Example 224, 6-[(4-{3-(cyanomethyl)-3-[4-(7H-pyrrolo[2,3-d]pyrimidin-4-yl)-1H-pyrazol-1-yl]azetidin-1-yl}piperidin-1-yl)methyl]-2-methoxynicotinonitrile]
Second: COc1ccc(CN2CCC(N3CC(CC#N)(n4cc(-c5ncnc6[nH]ccc56)cn4)C3)CC2)c(Cl)c1OC [Example 239, {1-[1-(2-chloro-3,4-dimethoxybenzyl)piperidin-4-yl]-3-[4-(7H-pyrrolo[2,3-d]pyrimidin-4-yl)-1H-pyrazol-1-yl]azetidin-3-yl}acetonitrile]
The “IC50 Ratio JAK2/JAK1” value of the first is higher: 2.4 for the first, 2.3 for the second.

Compared with N#CCC1(n2cc(-c3ncnc4[nH]ccc34)cn2)CN(C2CCN(Cc3cc(Br)nc(Br)c3)CC2)C1 [Example 225, {1-{1-[(2,6-dibromopyridin-4-yl)methyl]piperidin-4-yl}-3-[4-(7H-pyrrolo[2,3-d]pyrimidin-4-yl)-1H-pyrazol-1-yl]azetidin-3-yl}acetonitrile], N#CCC1(n2cc(-c3ncnc4[nH]ccc34)cn2)CN(C2CCN(Cc3c(Cl)cncc3Cl)CC2)C1 [Example 237, {1-{1-[(3,5-dichloropyridin-4-yl)methyl]piperidin-4-yl}-3-[4-(7H-pyrrolo[2,3-d]pyrimidin-4-yl)-1H-pyrazol-1-yl]azetidin-3-yl}acetonitrile] is lower in “IC50 Ratio JAK2/JAK1” value: 3.8 for the first, 2.3 for the second.

Going from N#CCC1(n2cc(-c3ncnc4[nH]ccc34)cn2)CN(C2CCN(Cc3c(F)cccc3Cl)CC2)C1 [Example 227, {1-[1-(2-chloro-6-fluorobenzyl)piperidin-4-yl]-3-[4-(7H-pyrrolo[2,3-d]pyrimidin-4-yl)-1H-pyrazol-1-yl]azetidin-3-yl}acetonitrile] to N#CCC1(n2cc(-c3ncnc4[nH]ccc34)cn2)CN(C2CCN(Cc3c(F)ccc(Cl)c3F)CC2)C1 [Example 228, {1-[1-(3-chloro-2,6-difluorobenzyl)piperidin-4-yl]-3-[4-(7H-pyrrolo[2,3-d]pyrimidin-4-yl)-1H-pyrazol-1-yl]azetidin-3-yl}acetonitrile], the “IC50 Ratio JAK2/JAK1” value falls from 7.9 to 3.9.

Going from Cc1onc(-c2ccccc2)c1CN1CCC(N2CC(CC#N)(n3cc(-c4ncnc5[nH]ccc45)cn3)C2)CC1 [Example 230, {1-{1-[(5-methyl-3-phenylisoxazol-4-yl)methyl]piperidin-4-yl}-3-[4-(7H-pyrrolo[2,3-d]pyrimidin-4-yl)-1H-pyrazol-1-yl]azetidin-3-yl}acetonitrile] to N#CCC1(n2cc(-c3ncnc4[nH]ccc34)cn2)CN(C2CCN(Cc3cc4ccccc4o3)CC2)C1 [Example 232, {1-[1-(1-benzofuran-2-ylmethyl)piperidin-4-yl]-3-[4-(7H-pyrrolo[2,3-d]pyrimidin-4-yl)-1H-pyrazol-1-yl]azetidin-3-yl}acetonitrile], the “IC50 Ratio JAK2/JAK1” value falls from 9.3 to 0.7.

First: N#CCC1(n2cc(-c3ncnc4[nH]ccc34)cn2)CN(C2CCN(Cc3ccnc(C(F)(F)F)c3F)CC2)C1 [Example 231, {1-(1-{[3-fluoro-2-(trifluoromethyl)pyridin-4-yl]methyl}piperidin-4-yl)-3-[4-(7H-pyrrolo[2,3-d]pyrimidin-4-yl)-1H-pyrazol-1-yl]azetidin-3-yl}acetonitrile]
Second: N#CCC1(n2cc(-c3ncnc4[nH]ccc34)cn2)CN(C2CCN(Cc3c(C(F)(F)F)ccc(Cl)c3F)CC2)C1 [Example 236, {1-{1-[3-chloro-2-fluoro-6-(trifluoromethyl)benzyl]piperidin-4-yl}-3-[4-(7H-pyrrolo[2,3-d]pyrimidin-4-yl)-1H-pyrazol-1-yl]azetidin-3-yl}acetonitrile]
The “IC50 Ratio JAK2/JAK1” value of the first is lower: 5.1 for the first, 5.5 for the second.

First: N#CCC1(n2cc(-c3ncnc4[nH]ccc34)cn2)CN(C2CCN(Cc3cccc(Oc4ccccc4)c3)CC2)C1 [Example 233, {1-[1-(3-phenoxybenzyl)piperidin-4-yl]-3-[4-(7H-pyrrolo[2,3-d]pyrimidin-4-yl)-1H-pyrazol-1-yl]azetidin-3-yl}acetonitrile]
Second: N#CCC1(n2cc(-c3ncnc4[nH]ccc34)cn2)CN(C2CCN(Cc3ccc4c(c3)OCCO4)CC2)C1 [Example 234, {1-[1-(2,3-dihydro-1,4-benzodioxin-6-ylmethyl)piperidin-4-yl]-3-[4-(7H-pyrrolo[2,3-d]pyrimidin-4-yl)-1H-pyrazol-1-yl]azetidin-3-yl}acetonitrile]
The “IC50 Ratio JAK2/JAK1” value of the first is lower: 2.2 for the first, 4.2 for the second.

First: COc1ccc2nc(Cl)c(CN3CCC(N4CC(CC#N)(n5cc(-c6ncnc7[nH]ccc67)cn5)C4)CC3)cc2c1 [Example 238, {1-{1-[(2-chloro-6-methoxyquinolin-3-yl)methyl]piperidin-4-yl}-3-[4-(7H-pyrrolo[2,3-d]pyrimidin-4-yl)-1H-pyrazol-1-yl]azetidin-3-yl}acetonitrile]
Second: Cn1nccc1S(=O)(=O)N1CCC(N2CC(CC#N)(n3cc(-c4ncnc5[nH]ccc45)cn3)C2)CC1 [Example 246, {1-{1-[(1-Methyl-1H-pyrazol-5-yl)sulfonyl]piperidin-4-yl}-3-[4-(7H-pyrrolo[2,3-d]pyrimidin-4-yl)-1H-pyrazol-1-yl]azetidin-3-yl}acetonitrile]
The “IC50 Ratio JAK2/JAK1” value of the first is lower: 6.8 for the first, 7.5 for the second.

Compared with N#CCC1(n2cc(-c3ncnc4[nH]ccc34)cn2)CN(C2CC3CCC(C2)N3Cc2c(F)ccc(F)c2Cl)C1 (centres unmarked) [Example 241, {1-[8-(2-Chloro-3,6-difluorobenzyl)-8-azabicyclo[3.2.1]oct-3-yl]-3-[4-(7H-pyrrolo[2,3-d]pyrimidin-4-yl)-1H-pyrazol-1-yl]azetidin-3-yl}acetonitrile], CC1CC(N2CC(CC#N)(n3cc(-c4ncnc5[nH]ccc45)cn3)C2)CCN1Cc1c(F)cccc1Cl (centres unmarked) [Example 245, {1-[1-(2-chloro-6-fluorobenzyl)-2-methylpiperidin-4-yl]-3-[4-(7H-pyrrolo[2,3-d]pyrimidin-4-yl)-1H-pyrazol-1-yl]azetidin-3-yl}acetonitrile] is lower in “IC50 Ratio JAK2/JAK1” value: 3.8 for the first, 1.5 for the second.

First: N#CCC1(n2cc(-c3ncnc4[nH]ccc34)cn2)CN(C2CCN(S(=O)(=O)c3ccccc3C#N)CC2)C1 [Example 247, 2-[(4-{3-(cyanomethyl)-3-[4-(7H-pyrrolo[2,3-d]pyrimidin-4-yl)-1H-pyrazol-1-yl]azetidin-1-yl}piperidin-1-yl)sulfonyl]benzonitrile]
Second: N#CCC1(n2cc(-c3ncnc4[nH]ccc34)cn2)CN(C2CCN(S(=O)(=O)c3ccc(C#N)cc3)CC2)C1 [Example 249, 4-[(4-{3-(cyanomethyl)-3-[4-(7H-pyrrolo[2,3-d]pyrimidin-4-yl)-1H-pyrazol-1-yl]azetidin-1-yl}piperidin-1-yl)sulfonyl]benzonitrile]
The “IC50 Ratio JAK2/JAK1” value of the first is higher: 5.1 for the first, 2.1 for the second.

First: CN(C)c1ccc(S(=O)(=O)N2CCC(N3CC(CC#N)(n4cc(-c5ncnc6[nH]ccc56)cn4)C3)CC2)cc1C#N [Example 250, 5-[(4-{3-(cyanomethyl)-3-[4-(7H-pyrrolo[2,3-d]pyrimidin-4-yl)-1H-pyrazol-1-yl]azetidin-1-yl}piperidin-1-yl)sulfonyl]-2-(dimethylamino)benzonitrile]
Second: Cn1ccc(S(=O)(=O)N2CCC(N3CC(CC#N)(n4cc(-c5ncnc6[nH]ccc56)cn4)C3)CC2)n1 [Example 251, {1-{1-[(1-methyl-1H-pyrazol-3-yl)sulfonyl]piperidin-4-yl}-3-[4-(7H-pyrrolo[2,3-d]pyrimidin-4-yl)-1H-pyrazol-1-yl]azetidin-3-yl}acetonitrile]
The “IC50 Ratio JAK2/JAK1” value of the first is lower: 4.7 for the first, 4.9 for the second.
